This is an account of results in patent US10947188B2, “Small molecule ferroptosis inducers” (THE TRUSTEES OF COLUMBIA UNIVERSITY IN THE CITY OF NEW YORK, priority 2016, dated 2021).

This assay relates to HT-1080 cells. The assay can be described thus: Lethality of commercially available CIL41/70 structural analogs. The class given is cell-based. Conditions: tested once in technical triplicates; for EC50: Homo sapiens. The method, then:
1,000 cells per 36 μl were seeded in each well in 384-well plates. Lethal compounds were dissolved, and a twofold, 12-point dilution series was prepared in DMSO. Compound solutions were further diluted with media at 1:25, and 4 μl per well of the diluted solutions was added to cell cultures immediately after cells were seeded. […] When other cell-death-modulating compounds (100 nM sodium selenite, 1 μM cerivastatin, 100 μg/mL mevalonic acid) were used in cotreatments, they were supplemented to cell culture for 24 h before lethal compounds were added to cell culture, after which cells were further incubated for 24 h at 37° C. under 5% CO2. On the day of the viability measurement, we added 10 μl per well of 50% Alamar Blue diluted in media (Life Technologies) and further incubated the cells at 37° C. for 6 h. Fluorescence intensity (excitation/emission: 530/590) was measured with a Victor 3 plate reader (PerkinElmer), and the normalized viability was calculated as VL=(IL−I0)/(IV−I0), where VL, I0, IV, and IL are the normalized viability and the raw fluorescence intensities from the wells containing media, cells treated with a vehicle (negative control), and cells with the lethal compound (L), respectively. When the effect of a chemical modulator (M) on L was calculated, we instead used the equation VL|M=(IM,L−I0)/(IM,V−I0), where VL|M, IM,L and IM,V are the normalized viability, and fluorescence intensity from cells treated with […], respectively. The viability was typically measured in biological triplicate unless otherwise specified. A representative dose-response curve, the mean and standard error of normalized viability from one replicate were plotted. HT-1080 viability after modulator treatments corresponding to FIG. 3C and FIGS. 5E-5F is available in FIGS. 19A-19C.
Their lethality was tested once in HT-1080 cells in technical triplicates.

≈ marks a conversion by molar mass, not a printed value. Some results are limits rather than exact numbers.

Broadly, the EC50 is the concentration that produces a half-maximal response. `CC(C)(C)C(=O)O/N=C(\N)Cc1ccc([N+](=O)[O-])cc1` [CB14] returned an EC50 of 14 µg/mL (≈ 50.1 µM).

`COc1ccccc1C/C(N)=N/OC(=O)COc1cc(C)cc(C)c1C` [CB126] showed an EC50 of 9.3 µg/mL (≈ 26.1 µM).

`COc1ccccc1CC(=O)O/N=C(\N)Cc1ccc(Cl)cc1Cl` [CB97] registered an EC50 greater than 20 µg/mL.

`N/C(Cc1ccc([N+](=O)[O-])cc1)=N\OC(=O)COc1cccc2ccccc12` [CB6] returned an EC50 greater than 20 µg/mL.

For `COc1ccc(OCC(N)=NOC(=O)CON=C(C)c2ccc(Cl)cc2)cc1` [MB2], the “EC50 of CIL41/70 and structural analogs (lethality)” value was “MB2 (>20 ug/mL)”.

Compound `Cc1ccc(Cl)cc1N1CCN(C/C(N)=N/OC(=O)CCC(=O)NC2CCCCC2)CC1` [CD1] yielded an EC50 greater than 20 µg/mL.

As to `Cc1cccc(OCC(=O)O/N=C(\N)Cc2ccc([N+](=O)[O-])cc2)c1` [CB39], the concentration for a half-maximal effect (EC50) was greater than 20 µg/mL.

`Cc1nn(C/C(N)=N/OC(=O)C23CC4CC(CC(C4)C2)C3)c(C)c1[N+](=O)[O-]` [CB147]: the EC50 came out at 4.88 µg/mL (≈ 13 µM).

Compound `COc1ccc(CC(=O)O/N=C(\N)Cc2ccc(Cl)cc2Cl)cc1OC` [CB59] came in with an EC50 greater than 20 µg/mL.

For `CCc1nc(C)ccc1OC/C(N)=N/OC(C)=O` [CB1], the EC50 is greater than 20 µg/mL.

In turn, `N/C(Cc1ccc(Cl)cc1)=N\OC(=O)COc1ccccc1Cl` [CB4] showed an EC50 greater than 20 µg/mL.

Take `COc1ccc(CC(=O)O/N=C(\N)Cn2nc(C(F)(F)F)cc2C)cc1` [ZE3]: the EC50 was greater than 20 µg/mL.

On to `CC(Oc1cccc(Cl)c1)C(=O)O/N=C(\N)Cc1ccc(Cl)cc1Cl` (centres unmarked) [CB137], for which the EC50 is greater than 20 µg/mL.

In turn, `COc1ccccc1C/C(N)=N/OC(=O)COc1ccc(Cl)cc1` [CB52] registered a 50% effective concentration (EC50) greater than 20 µg/mL.

Take `CC(=O)NC(=N/OC(C)=O)/C(=N/OC(C)=O)c1nc2ccccc2[nH]1` [CB20]: the EC50 is greater than 20 µg/mL.

In the case of `N/C(Cc1ccc([N+](=O)[O-])cc1)=N\OC(=O)C(c1ccccc1)c1ccccc1` [CB56], the response was half-maximal at 4.05 µg/mL (≈ 10.4 µM) (EC50).

Regarding `Cc1nn(C/C(N)=N/OC(=O)C2CCCCC2)c(C)c1Br` [ZE1], the concentration giving a half-maximal response (EC50) is greater than 20 µg/mL.

As to `COc1ccc(CC(=O)O/N=C(\N)Cc2cccc3ccccc23)cc1OC` [CB64], the EC50 was greater than 20 µg/mL.

Turning to `CCC(Oc1ccccc1)C(=O)O/N=C(\N)Cc1ccc(Cl)cc1Cl` (centres unmarked) [CB140], the EC50 is 8.56 µg/mL (≈ 22.5 µM).

As for `COc1ccccc1C/C(N)=N/OC(=O)COc1ccc(C)cc1` [CB29], the EC50 is greater than 20 µg/mL.

For the compound `COc1ccc(CC(=O)O/N=C(\N)Cc2ccc([N+](=O)[O-])cc2)cc1OC` [CB51], the EC50 was greater than 20 µg/mL.

For `CC(=O)O/N=C(N)/C(N)=N/OC(C)=O` [ZE17], the EC50 was greater than 20 µg/mL.

`Cc1cc(Br)ccc1OCC(=O)O/N=C(\N)Cc1cccc2ccccc12` [CB107] had an EC50 greater than 20 µg/mL.

As to `Cc1cc(C(F)(F)F)nn1C/C(N)=N/OC(=O)CC12CC3CC(CC(C3)C1)C2` [ZE8], the EC50 was greater than 20 µg/mL.

`CC(C)(C)C(=O)O/N=C(\N)CS(=O)(=O)c1ccc(Cl)cc1` [MB15] gave an EC50 greater than 20 µg/mL.

In turn, `COc1ccc(/C=C/C(=O)O/N=C2\CCCCCN2)cc1OC` [EN2] came in with an EC50 of 10.5 µg/mL (≈ 33 µM).
